Experimental data as given in ChEMBL document CHEMBL5032500, “Adenosine A2AR/A1R Antagonists Enabling Additional H3R Antagonism for the Treatment of Parkinson's Disease” (J Med Chem, 2021).
pKi: −log10 of the molar value. Activity calls are given as the source filed them. The rule behind the calls is not given here.

Experiments:
Homo sapiens [1] = species on record: Homo sapiens; test: Selectivity index, ratio of Ki for human recombinant adenosine A3 receptor to Ki for human recombinant adenosine A2B receptor
Homo sapiens [2] = species on record: Homo sapiens; test: Selectivity index, ratio of Ki for human recombinant dopamine D2S receptor to Ki for human recombinant adenosine A3 receptor
Homo sapiens [3] = species on record: Homo sapiens; test: Selectivity index, ratio of Ki for human recombinant dopamine D3 receptor to Ki for human recombinant adenosine A2B receptor
Homo sapiens [4] = species on record: Homo sapiens; test: Selectivity index, ratio of Ki for human recombinant adenosine A2A receptor to Ki for human recombinant adenosine A1 receptor
Homo sapiens [5] = species on record: Homo sapiens; test: Selectivity index, ratio of Ki for human recombinant adenosine A2A receptor to Ki for human recombinant histamine H3 receptor
Homo sapiens [6] = species on record: Homo sapiens; test: Selectivity index, ratio of Ki for human recombinant adenosine A3 receptor to Ki for human recombinant adenosine A2A receptor
Homo sapiens [7] = species on record: Homo sapiens; test: Selectivity index, ratio of Ki for human recombinant dopamine D2S receptor to Ki for human recombinant adenosine A1 receptor
Mus musculus [8] = test: Induction of wakefulness in C57BL/6 mouse at 1 mg/kg, po by EEG analysis; format: functional, organism-based
MAO-B = MAO-B (Homo sapiens, UniProt P27338); test: Inhibition of human recombinant MAO-B using kynuramine as substrate at 10 uM measured for 30 mins by spectrophotometric analysis; details: probe kynuramine
MAO-B, sequence (P27338 whole entry): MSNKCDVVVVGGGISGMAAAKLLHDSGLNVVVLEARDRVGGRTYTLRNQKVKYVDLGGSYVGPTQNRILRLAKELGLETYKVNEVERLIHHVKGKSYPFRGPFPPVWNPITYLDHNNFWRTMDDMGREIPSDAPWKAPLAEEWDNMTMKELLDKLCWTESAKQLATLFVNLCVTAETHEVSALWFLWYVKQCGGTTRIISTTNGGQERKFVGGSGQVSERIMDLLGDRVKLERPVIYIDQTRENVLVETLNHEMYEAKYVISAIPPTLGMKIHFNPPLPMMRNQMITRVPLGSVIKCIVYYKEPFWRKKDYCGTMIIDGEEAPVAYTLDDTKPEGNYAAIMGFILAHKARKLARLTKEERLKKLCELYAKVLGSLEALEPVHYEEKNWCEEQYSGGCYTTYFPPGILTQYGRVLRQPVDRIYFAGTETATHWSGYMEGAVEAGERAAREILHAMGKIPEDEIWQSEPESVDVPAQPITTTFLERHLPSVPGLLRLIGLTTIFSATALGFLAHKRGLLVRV

Mus musculus [9] = test: Induction of wakefulness in C57BL/6 mouse assessed as increase in time spent awake at 2 mg/kg, po by EEG analysis; format: functional, organism-based
D(2) dopamine receptor = D(2) dopamine receptor (Homo sapiens, UniProt P14416); test: Displacement of [3H]spiperone from human recombinant dopamine D2S receptor expressed in CHO cells by liquid scintillation counting analysis; format: cell-based
D(2) dopamine receptor, sequence (P14416 whole entry): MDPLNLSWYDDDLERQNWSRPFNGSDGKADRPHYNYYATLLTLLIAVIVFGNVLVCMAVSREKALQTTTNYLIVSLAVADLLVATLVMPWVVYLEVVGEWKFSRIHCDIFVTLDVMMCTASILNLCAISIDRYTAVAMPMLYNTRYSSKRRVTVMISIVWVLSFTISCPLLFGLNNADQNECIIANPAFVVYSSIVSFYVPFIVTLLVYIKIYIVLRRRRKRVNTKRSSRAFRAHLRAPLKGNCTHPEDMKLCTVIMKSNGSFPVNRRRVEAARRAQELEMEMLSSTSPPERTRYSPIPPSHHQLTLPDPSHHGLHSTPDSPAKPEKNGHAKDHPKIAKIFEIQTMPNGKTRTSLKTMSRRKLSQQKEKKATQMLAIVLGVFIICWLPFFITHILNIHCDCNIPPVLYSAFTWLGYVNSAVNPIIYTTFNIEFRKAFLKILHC

Homo sapiens [10] = species on record: Homo sapiens; test: Selectivity index, ratio of Ki for human recombinant dopamine D2S receptor to Ki for human recombinant histamine H3 receptor
Homo sapiens [11] = species on record: Homo sapiens; test: Selectivity index, ratio of Ki for human recombinant dopamine D3 receptor to Ki for human recombinant adenosine A1 receptor
Homo sapiens [12] = species on record: Homo sapiens; test: Selectivity index, ratio of Ki for human recombinant dopamine D3 receptor to Ki for human recombinant dopamine D2S receptor
Homo sapiens [13] = species on record: Homo sapiens; test: Selectivity index, ratio of Ki for human recombinant dopamine D3 receptor to Ki for human recombinant adenosine A2A receptor
Homo sapiens [14] = species on record: Homo sapiens; test: Selectivity index, ratio of Ki for human recombinant adenosine A1 receptor to Ki for human recombinant histamine H3 receptor
Homo sapiens [15] = species on record: Homo sapiens; test: Selectivity index, ratio of Ki for human recombinant adenosine A2B receptor to Ki for human recombinant adenosine A1 receptor
Homo sapiens [16] = species on record: Homo sapiens; test: Selectivity index, ratio of Ki for human recombinant adenosine A3 receptor to Ki for human recombinant histamine H3 receptor
Mus musculus [17] = test: Induction of wake promoting activity in C57BL/6 mouse assessed as reduction in slow wave sleep at 2 mg/kg, po by EEG analysis; format: functional, organism-based
Histamine H1 receptor = Histamine H1 receptor (Homo sapiens, UniProt P35367); test: Displacement of [3H]pyrilamine from human recombinant histamine H1 receptor expressed in CHO cells by liquid scintillation counting analysis; format: cell-based
Histamine H1 receptor, sequence (P35367 whole entry): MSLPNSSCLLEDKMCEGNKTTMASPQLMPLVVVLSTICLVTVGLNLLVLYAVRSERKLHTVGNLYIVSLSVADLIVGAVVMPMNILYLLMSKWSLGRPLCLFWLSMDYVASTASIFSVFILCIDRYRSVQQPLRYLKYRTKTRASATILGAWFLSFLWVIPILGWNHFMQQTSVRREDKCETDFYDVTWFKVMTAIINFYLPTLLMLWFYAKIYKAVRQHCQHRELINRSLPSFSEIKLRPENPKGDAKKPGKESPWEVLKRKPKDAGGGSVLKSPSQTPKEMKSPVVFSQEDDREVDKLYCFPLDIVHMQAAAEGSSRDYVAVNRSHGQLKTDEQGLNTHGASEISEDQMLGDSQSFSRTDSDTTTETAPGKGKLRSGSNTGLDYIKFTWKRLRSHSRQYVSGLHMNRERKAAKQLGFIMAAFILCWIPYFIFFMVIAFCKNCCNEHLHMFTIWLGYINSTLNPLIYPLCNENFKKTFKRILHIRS

MAO-A = MAO-A (Homo sapiens, UniProt P21397); test: Inhibition of human recombinant MAO-A using kynuramine as substrate at 10 uM measured for 30 mins by spectrophotometric analysis; details: probe kynuramine
MAO-A, sequence (P21397 whole entry): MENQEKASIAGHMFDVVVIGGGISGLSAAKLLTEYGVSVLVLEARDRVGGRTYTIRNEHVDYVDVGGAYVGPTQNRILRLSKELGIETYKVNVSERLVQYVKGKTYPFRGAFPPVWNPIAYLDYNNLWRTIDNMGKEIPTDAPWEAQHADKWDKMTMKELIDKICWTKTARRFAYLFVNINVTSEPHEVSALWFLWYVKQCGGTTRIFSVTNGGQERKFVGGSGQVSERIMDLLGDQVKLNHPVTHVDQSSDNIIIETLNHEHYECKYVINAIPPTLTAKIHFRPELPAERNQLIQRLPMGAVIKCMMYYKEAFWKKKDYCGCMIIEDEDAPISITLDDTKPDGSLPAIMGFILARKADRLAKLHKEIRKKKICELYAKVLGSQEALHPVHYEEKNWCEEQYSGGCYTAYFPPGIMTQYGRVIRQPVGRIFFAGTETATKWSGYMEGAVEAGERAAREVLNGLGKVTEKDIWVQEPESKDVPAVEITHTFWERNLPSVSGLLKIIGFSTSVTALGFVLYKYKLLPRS

Homo sapiens [18] = species on record: Homo sapiens; test: Selectivity index, ratio of Ki for human recombinant dopamine D2S receptor to Ki for human recombinant adenosine A2A receptor
Histamine H4 receptor = Histamine H4 receptor (Homo sapiens, UniProt Q9H3N8); test: Displacement of [3H]histamine from human recombinant histamine H4 receptor expressed in sf9 cells by liquid scintillation counting analysis
Adenosine receptor A1 = target: T1, Adenosine receptor A1 (Homo sapiens, UniProt P30542); test: Displacement of [3H]CCPA from human recombinant adenosine A1 receptor expressed in CHO cells by liquid scintillation counting analysis; format: cell-based
T1 sequence (P30542 whole entry): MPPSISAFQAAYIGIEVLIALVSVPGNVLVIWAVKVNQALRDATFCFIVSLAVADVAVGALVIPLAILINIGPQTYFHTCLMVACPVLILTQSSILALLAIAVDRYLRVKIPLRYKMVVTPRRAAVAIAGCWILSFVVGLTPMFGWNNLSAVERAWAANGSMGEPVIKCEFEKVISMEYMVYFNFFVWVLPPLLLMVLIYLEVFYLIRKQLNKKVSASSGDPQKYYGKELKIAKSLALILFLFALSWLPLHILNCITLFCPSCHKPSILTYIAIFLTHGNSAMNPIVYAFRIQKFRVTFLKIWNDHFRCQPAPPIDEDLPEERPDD

[19] = Displacement of [3H]SCH23390 from human recombinant dopamine D1 receptor expressed in HEK293 cells by liquid scintillation counting analysis; format: cell-based
[20] = Toxicity in C57BL/6 mouse assessed as effect on paradoxical sleep at 2 mg/kg, po by EEG analysis; format: organism-based; details: in vivo
Adenosine receptor A3 = target: T2, Adenosine receptor A3 (Homo sapiens, UniProt P0DMS8); test: Displacement of [3H]PSB-11 from human recombinant adenosine A3 receptor expressed in CHO cells by liquid scintillation counting analysis; format: cell-based
T2 sequence (P0DMS8 whole entry): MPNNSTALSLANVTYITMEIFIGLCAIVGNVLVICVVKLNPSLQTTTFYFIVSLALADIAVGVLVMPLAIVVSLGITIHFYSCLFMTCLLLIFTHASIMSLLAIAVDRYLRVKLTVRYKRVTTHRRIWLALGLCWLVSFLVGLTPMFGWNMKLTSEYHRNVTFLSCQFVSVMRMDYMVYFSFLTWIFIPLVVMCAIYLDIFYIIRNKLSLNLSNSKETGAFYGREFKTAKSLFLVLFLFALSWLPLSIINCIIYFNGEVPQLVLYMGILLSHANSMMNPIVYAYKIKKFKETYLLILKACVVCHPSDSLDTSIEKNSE

Adenosine receptor A2b = target: T3, Adenosine receptor A2b (Homo sapiens, UniProt P29275); test: Displacement of [3H]PSB-603 from human recombinant adenosine A2B receptor expressed in CHO cells by liquid scintillation counting analysis; format: cell-based
T3 sequence (P29275 whole entry): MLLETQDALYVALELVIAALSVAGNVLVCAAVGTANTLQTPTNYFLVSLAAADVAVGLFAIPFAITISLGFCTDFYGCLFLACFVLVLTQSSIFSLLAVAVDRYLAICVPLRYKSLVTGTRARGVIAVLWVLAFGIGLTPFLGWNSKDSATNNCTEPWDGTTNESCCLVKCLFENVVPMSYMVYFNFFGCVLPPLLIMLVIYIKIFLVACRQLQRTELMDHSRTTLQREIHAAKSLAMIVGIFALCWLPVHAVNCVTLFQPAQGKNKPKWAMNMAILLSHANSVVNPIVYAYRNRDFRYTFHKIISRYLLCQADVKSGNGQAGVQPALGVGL

Adenosine receptor A2a [21] = target: T4, Adenosine receptor A2a (Homo sapiens, UniProt P29274); test: […] activity at human recombinant adenosine A2A receptor expressed in CHO cells assessed as inhibition of NECA-induced cAMP accumulation incubated for 20 mins by radioligand competition binding assay; format: functional, cell-based
T4 sequence (P29274 whole entry): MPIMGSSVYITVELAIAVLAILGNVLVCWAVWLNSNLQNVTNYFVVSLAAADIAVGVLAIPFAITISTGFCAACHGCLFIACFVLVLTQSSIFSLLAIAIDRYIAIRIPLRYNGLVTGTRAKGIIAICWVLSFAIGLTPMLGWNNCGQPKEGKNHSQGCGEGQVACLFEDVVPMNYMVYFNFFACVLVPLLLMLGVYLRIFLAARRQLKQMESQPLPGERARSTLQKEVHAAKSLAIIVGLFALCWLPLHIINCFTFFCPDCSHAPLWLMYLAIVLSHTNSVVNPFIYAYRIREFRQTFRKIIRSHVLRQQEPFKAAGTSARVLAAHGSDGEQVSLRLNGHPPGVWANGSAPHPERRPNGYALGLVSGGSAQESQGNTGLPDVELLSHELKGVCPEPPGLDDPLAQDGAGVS

Homo sapiens [22] = species on record: Homo sapiens; test: Selectivity index, ratio of Ki for human recombinant dopamine D3 receptor to Ki for human recombinant adenosine A3 receptor
Rattus norvegicus = test: Antiparkinson's activity in ip dosed L-DOPA induced dyskinesia Sprague-Dawley rat model assessed as reduction in dyskinesia by measuring abnormal involuntary movement upto 21 days; format: functional, organism-based; details: dose 0.1-1 mg/kg, time day <=21
Homo sapiens [23] = species on record: Homo sapiens; test: Selectivity index, ratio of Ki for human recombinant adenosine A2B receptor to Ki for human recombinant adenosine A2A receptor
Homo sapiens [24] = species on record: Homo sapiens; test: Selectivity index, ratio of Ki for human recombinant dopamine D3 receptor to Ki for human recombinant histamine H3 receptor
Adenosine receptor A2a [25] = target: T4, Adenosine receptor A2a; test: Displacement of [3H]MSX-2 from human recombinant adenosine A2A receptor expressed in CHO cells by liquid scintillation counting analysis; format: cell-based
D(3) dopamine receptor = D(3) dopamine receptor (Homo sapiens, UniProt P35462); test: Displacement of [3H]spiperone from human recombinant dopamine D3 receptor expressed in CHO cells by liquid scintillation counting analysis; format: cell-based
D(3) dopamine receptor, sequence (P35462 whole entry): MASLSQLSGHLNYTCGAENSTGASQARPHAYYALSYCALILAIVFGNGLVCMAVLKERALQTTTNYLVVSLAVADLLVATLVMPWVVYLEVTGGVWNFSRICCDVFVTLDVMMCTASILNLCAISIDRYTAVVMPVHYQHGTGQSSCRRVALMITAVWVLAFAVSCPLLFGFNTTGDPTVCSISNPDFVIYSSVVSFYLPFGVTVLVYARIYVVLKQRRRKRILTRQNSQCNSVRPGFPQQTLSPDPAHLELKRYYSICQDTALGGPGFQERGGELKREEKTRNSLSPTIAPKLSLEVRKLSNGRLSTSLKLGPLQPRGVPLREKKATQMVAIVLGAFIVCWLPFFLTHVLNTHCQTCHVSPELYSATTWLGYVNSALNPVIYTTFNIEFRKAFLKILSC

[26] = target: Adenosine receptors; A1 & A3 (Homo sapiens) (UniProt P30542+P0DMS8); test: Selectivity index, ratio of Ki for human recombinant adenosine A3 receptor to Ki for human recombinant adenosine A1 receptor; format: protein assay
D(1B) dopamine receptor = D(1B) dopamine receptor (Homo sapiens, UniProt P21918); test: Displacement of [3H]SCH23390 from human recombinant dopamine D5 receptor expressed in HEK293 cells by liquid scintillation counting analysis; format: cell-based
D(1B) dopamine receptor, sequence (P21918 whole entry): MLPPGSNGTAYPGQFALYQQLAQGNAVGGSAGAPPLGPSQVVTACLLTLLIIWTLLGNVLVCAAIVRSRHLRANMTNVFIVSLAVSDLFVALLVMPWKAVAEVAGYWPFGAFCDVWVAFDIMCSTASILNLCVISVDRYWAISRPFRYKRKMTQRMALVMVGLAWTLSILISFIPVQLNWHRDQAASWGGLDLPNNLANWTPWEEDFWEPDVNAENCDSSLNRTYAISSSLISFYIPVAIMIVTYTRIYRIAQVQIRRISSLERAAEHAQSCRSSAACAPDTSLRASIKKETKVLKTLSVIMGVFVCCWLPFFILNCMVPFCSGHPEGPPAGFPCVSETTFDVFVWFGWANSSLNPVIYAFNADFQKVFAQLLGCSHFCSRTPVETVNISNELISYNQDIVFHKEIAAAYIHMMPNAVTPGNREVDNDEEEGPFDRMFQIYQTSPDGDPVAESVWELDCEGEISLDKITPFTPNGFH

Homo sapiens [27] = species on record: Homo sapiens; test: Selectivity index, ratio of Ki for human recombinant dopamine D2S receptor to Ki for human recombinant adenosine A2B receptor
Homo sapiens [28] = species on record: Homo sapiens; test: Selectivity index, ratio of Ki for human recombinant adenosine A2B receptor to Ki for human recombinant histamine H3 receptor
Histamine H3 receptor = Histamine H3 receptor (Homo sapiens, UniProt Q9Y5N1); test: Displacement of [3H] N-alpha methylhistamine from human recombinant histamine H3 receptor expressed in HEK293 cells measured after 90 mins; format: cell-based
Histamine H3 receptor, sequence (Q9Y5N1 whole entry): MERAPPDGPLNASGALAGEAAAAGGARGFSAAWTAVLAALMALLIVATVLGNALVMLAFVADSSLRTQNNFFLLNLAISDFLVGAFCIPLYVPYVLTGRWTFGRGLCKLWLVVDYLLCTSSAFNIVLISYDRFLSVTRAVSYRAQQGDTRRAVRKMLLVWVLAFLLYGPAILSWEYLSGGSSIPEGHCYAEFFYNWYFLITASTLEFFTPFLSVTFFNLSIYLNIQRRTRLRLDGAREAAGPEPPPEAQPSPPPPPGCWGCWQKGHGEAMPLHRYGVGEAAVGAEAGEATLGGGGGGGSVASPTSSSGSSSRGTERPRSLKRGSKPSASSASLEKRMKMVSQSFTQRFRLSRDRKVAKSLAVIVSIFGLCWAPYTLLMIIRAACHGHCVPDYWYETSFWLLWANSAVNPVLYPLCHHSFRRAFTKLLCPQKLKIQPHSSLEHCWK

Ratio Ki (Homo sapiens [1]): 3 | Ratio Ki (Homo sapiens [2]): 11 | Ratio Ki (Homo sapiens [3]): 8 | Ratio Ki (Homo sapiens [4]): 0.36 | Ratio Ki (Homo sapiens [5]): 0.08 | Ratio Ki (Homo sapiens [6]): 37 | Ratio Ki (Homo sapiens [7]): 142 | inhibition at 0.5 h, 10 µM (MAO-B): 50% | pKi (D(2) dopamine receptor): 5.80 | Ratio Ki (Homo sapiens [10]): 31 | Ratio Ki (Homo sapiens [11]): 33 | Ratio Ki (Homo sapiens [12]): 0.23 | Ratio Ki (Homo sapiens [13]): 91 | Ratio Ki (Homo sapiens [14]): 0.22 | Ratio Ki (Homo sapiens [15]): 4 | Ratio Ki (Homo sapiens [16]): 3 | pKi (Histamine H1 receptor): < 6.00 | inhibition at 0.5 h, 10 µM (MAO-A): 16% | Ratio Ki (Homo sapiens [18]): 396 | pKi (Histamine H4 receptor): < 5.00 | pKi (Adenosine receptor A1): 7.95 | pKi (Adenosine receptor A3): 6.82 | pKi (Adenosine receptor A2b): 7.36 | Activity (Adenosine receptor A2a [21]): inactive | Ratio Ki (Homo sapiens [22]): 2 | Ratio Ki (Homo sapiens [23]): 11 | Ratio Ki (Homo sapiens [24]): 7 | pKi (Adenosine receptor A2a [25]): 8.40 | pKi (D(3) dopamine receptor): 6.44 | Ratio Ki [26]: 13 | pKi (D(1B) dopamine receptor): < 6.00 | Ratio Ki (Homo sapiens [27]): 36 | Ratio Ki (Homo sapiens [28]): 0.84 | pKi (Histamine H3 receptor): 7.28
SMILES: Nc1nc(-c2ccccc2)c2c(n1)-c1cc(OCCCN3CCCCC3)ccc1C2=O
Activity (Mus musculus [8]): inactive | Activity (Mus musculus [9]): Active | Activity (Mus musculus [17]): Active | pKi [19]: < 6.00 | Activity [20]: Non-Toxic | Activity (Rattus norvegicus): Dose-Dependent Effect
